According to ChEMBL document CHEMBL4665716, “Identification of a novel series of azabenzimidazole-derived inhibitors of spleen tyrosine kinase” (Bioorg Med Chem Lett, 2020):
Values after ≈ are worked out from the molar mass of the structure shown.

What was measured:
[1] = target: Tyrosine-protein kinase SYK (Homo sapiens, UniProt P43405); assay: Inhibition of SYK (unknown origin)
SUD4 = assay: Growth inhibition of human SU-DHL-4 cells; format: functional
[2] = target: Voltage-gated inwardly rectifying potassium channel KCNH2 (Homo sapiens, UniProt Q12809); assay: Inhibition of human ERG
Sequence of Voltage-gated inwardly rectifying potassium channel KCNH2 (Q12809 whole entry): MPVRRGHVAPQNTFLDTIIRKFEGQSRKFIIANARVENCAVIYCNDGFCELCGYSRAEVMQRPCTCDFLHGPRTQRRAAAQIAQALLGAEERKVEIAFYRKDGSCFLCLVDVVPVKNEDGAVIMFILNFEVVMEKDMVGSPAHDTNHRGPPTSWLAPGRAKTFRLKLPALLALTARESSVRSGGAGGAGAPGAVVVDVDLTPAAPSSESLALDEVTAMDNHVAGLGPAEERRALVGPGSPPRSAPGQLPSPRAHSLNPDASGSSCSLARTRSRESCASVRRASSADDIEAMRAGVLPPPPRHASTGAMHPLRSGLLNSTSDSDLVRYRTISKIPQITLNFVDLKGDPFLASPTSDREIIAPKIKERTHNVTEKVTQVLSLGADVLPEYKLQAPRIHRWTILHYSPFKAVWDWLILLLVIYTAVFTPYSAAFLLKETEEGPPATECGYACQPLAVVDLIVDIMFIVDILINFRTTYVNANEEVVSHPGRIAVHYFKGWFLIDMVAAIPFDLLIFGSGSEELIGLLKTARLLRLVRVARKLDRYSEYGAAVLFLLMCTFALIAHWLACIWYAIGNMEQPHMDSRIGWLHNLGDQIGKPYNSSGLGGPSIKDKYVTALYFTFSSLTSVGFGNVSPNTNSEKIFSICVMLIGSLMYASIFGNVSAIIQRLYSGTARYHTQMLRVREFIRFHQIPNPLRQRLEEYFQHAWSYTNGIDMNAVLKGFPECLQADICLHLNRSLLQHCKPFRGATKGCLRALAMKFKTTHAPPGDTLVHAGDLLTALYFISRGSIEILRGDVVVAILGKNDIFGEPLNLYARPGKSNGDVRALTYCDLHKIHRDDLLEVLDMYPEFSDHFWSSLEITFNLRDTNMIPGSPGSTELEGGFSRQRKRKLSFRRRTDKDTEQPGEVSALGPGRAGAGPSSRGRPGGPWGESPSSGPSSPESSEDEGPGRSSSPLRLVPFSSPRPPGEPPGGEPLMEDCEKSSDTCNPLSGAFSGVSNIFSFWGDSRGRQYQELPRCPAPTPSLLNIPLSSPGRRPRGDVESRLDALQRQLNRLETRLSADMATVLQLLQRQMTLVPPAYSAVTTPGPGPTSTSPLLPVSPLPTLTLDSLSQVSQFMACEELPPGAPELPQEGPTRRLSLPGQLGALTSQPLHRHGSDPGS

[3] = Apparent permeability in human Caco-2 cells; format: ADME, cell-based
[4] = Intrinsic clearance in human liver microsome; format: ADME; conditions: microsomes
[5] = Intrinsic clearance in rat hepatocytes assessed per 10^6 cells; format: ADME, cell-based, Hepatocyte; conditions: read-out: CLH
[6] = Solubility of compound; format: physicochemical
[7] = Lipophilicity, logD of compound; format: physicochemical; conditions: octanol/water

| Compound | IC50 [1] [nM] | GI50 (SUD4) [nM] | IC50 [2] [nM] | other results |
| --- | --- | --- | --- | --- |
| Cn1ccc2c(-c3nc4c(-n5cc(N[C@@H]6CCOC[C@@H]6N)cn5)ccnc4[nH]3)cccc21 |  | 210 |  |  |
| CN(C)Cc1cnn(-c2ccnc3[nH]c(-c4cn(C)c5ccc(C(=O)N(C)C)cc45)nc23)c1 | 1.2 | 1700 | > 40000 |  |
| Cn1ccc2c(-c3nc4c(-n5cc(CN6CC[C@H](O)C6)cn5)ccnc4[nH]3)cccc21 | 1 | 1800 | > 40000 |  |
| CNC(=O)c1cc2c(-c3nc4c(-n5cc(CN(C)C)cn5)ccnc4[nH]3)cn(C)c2cn1 | 0.18 | 870 | > 40000 |  |
| Clc1cnc2[nH]c(-c3ccccc3)nc2c1OCC1CCNCC1 | 30 |  |  |  |
| CC(=O)Nc1ccc2c(c1)c(-c1nc3c(-n4cc(CN(C)C)c(C)n4)ccnc3[nH]1)cn2C | 0.17 | 200 |  |  |
| Cn1ccc2c(-c3nc4c(-n5cc(CN6CC[C@@H](O)C6)cn5)ccnc4[nH]3)cccc21 | 0.48 | 1200 | > 33000 |  |
| Cc1nn(-c2ccnc3[nH]c(-c4cccc5c4ccn5C)nc23)cc1CN1CC[C@@H](O)C1 | 0.91 | 1100 | 31000 | Papp [3]: 0.63 ×10⁻⁶ cm/s; CLint [4]: 63 µL/min/mg; hepatocyte CLint [5]: 40 µL/min/1e6 cells; solubility [6]: < 20 µM; logD [7]: 2.9 |

More lines, main results first:

| IC50 [1] [nM] | Compound | GI50 (SUD4) [nM] | IC50 [2] [nM] | other results |
| --- | --- | --- | --- | --- |
| 5 | COc1ccc(-c2nc3c(NCC4CCNCC4)c(Cl)cnc3[nH]2)cc1 |  |  |  |
| 2.8 | CN(C)Cc1cc(-c2ccnc3[nH]c(-c4cccc5c4ccn5C)nc23)nn1C | 1000 | 13000 |  |
| 0.15 | CNC(=O)c1ccc2c(c1)c(-c1nc3c(-n4cc(CN(C)C)cn4)ccnc3[nH]1)cn2C | 210 |  |  |
| 0.21 | Cc1nnc(-c2ncn3ccc(Nc4nccc(-c5cc(CN(C)C)n(C)n5)n4)cc23)o1 |  |  |  |
| 4.6 | Cc1nn(-c2ccnc3[nH]c(-c4cccc5c4ccn5C)nc23)cc1CN1CC[C@H](O)C1 | 1200 | 27000 |  |
| 0.098 | Cc1nnc(-c2ccc3c(c2)c(-c2nc4c(-n5cc(CN(C)C)c(C)n5)ccnc4[nH]2)cn3C)o1 | 290 |  |  |
| 0.077 | CN(C)Cc1cnn(-c2ccnc3[nH]c(-c4cn(C)c5ccc(S(C)(=O)=O)cc45)nc23)c1 | 440 |  |  |
| 5.5 | CN(c1cnn(-c2ccnc3[nH]c(-c4cccc5c4ccn5C)nc23)c1)[C@@H]1CCOC[C@@H]1N | 1100 | 9200 |  |
| 3.51 | Cn1ccc2c(-c3nc4c(OCC5CCNCC5)c(Cl)cnc4[nH]3)cccc21 |  |  |  |
| 0.83 | Cc1nn(-c2ccnc3[nH]c(-c4cccc5c4ccn5C)nc23)cc1CN(C)C | 770 | 2600 | CLint [4]: 37 µL/min/mg; hepatocyte CLint [5]: 127 µL/min/1e6 cells; solubility [6]: 89 µM (≈ 34.3 µg/mL); logD [7]: 2.8 |
